The test deals with T1, hGLP1 receptor (Homo sapiens, UniProt P43220).
T1 construct: expressed in transfected cells; host or cells: HEK (human embryonic kidney) cells co-expressing hGLP1 receptor and CRE-Luciferase
Briefly: cAMP HTRF agonist assay in HEK cells co-expressing hGLP1 receptor and CRE-Luciferase. It is filed as cell-based. Put shortly: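 HEK cells co-expressing hGLP1R and CRE-luciferase, 1000 cells/well in DPBS with 500 μM IBMX, exposed to peptides or exendin-4 reference for 30 min; 11-point 1:3 series from top 1.0 μM. cAMP measured by HTRF (665/615 nm) after 1 h at room temperature; EC50 from 4-parameter logistic fit.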
On the technique in general: Time-resolved FRET reads energy transfer from a long-lived donor to a nearby acceptor.

Where [1] appears, read: cAMP EC50, nM (0.1% albumin), Table 1, 0.1% albumin.
The mark [2] stands for this setting: cAMP EC50, nM (0.1% albumin), Table 4, 0.1% albumin.
The mark [3] stands for this setting: Table 5, 0% albumin, read-out: cAMP EC50, nM (0% albumin).
Setting [4] is: cAMP EC50, nM (0.1% albumin), Table 6, 0.1% albumin.

Where two headings read alike, the source gives them in different places. Square brackets hold non-standard residues; d marks the D form. Peptide text beside a SMILES is read from it. * marks the point of attachment. Phe(3,4,5-F3) = N[C@@H](Cc1cc(F)c(F)c(F)c1)C(=O)O; Bip = N[C@@H](Cc1ccc(-c2ccccc2)cc1)C(=O)O; Hydrocinnamoyl(4-I) = O=C(CCc1ccc(I)cc1)*; αMePhe(2-F) = C[C@](N)(Cc1ccccc1F)C(=O)O; Phe(2-Cl) = N[C@@H](Cc1ccccc1Cl)C(=O)O; Phe(2-F) = N[C@@H](Cc1ccccc1F)C(=O)O; hTyr = N[C@@H](CCc1ccc(O)cc1)C(=O)O; hPhe = N[C@@H](CCc1ccccc1)C(=O)O; αMeP = C[C@@]1(C(=O)O)CCCN1; AEEA = NCCOCCOCC(=O)O; Aib = CC(C)(N)C(=O)O

T1 sequence (P43220 24-463): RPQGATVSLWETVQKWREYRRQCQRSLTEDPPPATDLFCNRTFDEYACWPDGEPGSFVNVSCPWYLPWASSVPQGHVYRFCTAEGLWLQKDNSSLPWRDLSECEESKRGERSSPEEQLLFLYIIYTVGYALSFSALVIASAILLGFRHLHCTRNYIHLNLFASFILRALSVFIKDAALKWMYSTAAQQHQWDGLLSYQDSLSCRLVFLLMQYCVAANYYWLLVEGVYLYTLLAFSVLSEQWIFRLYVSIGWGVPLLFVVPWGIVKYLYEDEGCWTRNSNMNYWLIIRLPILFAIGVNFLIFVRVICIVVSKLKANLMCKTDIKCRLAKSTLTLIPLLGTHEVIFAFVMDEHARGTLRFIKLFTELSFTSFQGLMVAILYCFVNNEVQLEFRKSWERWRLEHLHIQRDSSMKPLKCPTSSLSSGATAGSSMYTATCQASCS

Take `C[C@@H](O)[C@H](NC(=O)CNC(=O)[C@H](CCC(=O)O)NC(=O)C(C)(C)NC(=O)[C@@H](N)Cc1c[nH]cn1)C(=O)N[C@@H](Cc1ccccc1Cl)C(=O)N[C@H](C(=O)N[C@@H](CO)C(=O)N[C@@H](CC(=O)O)C(=O)N[C@@H](Cc1ccc(-c2ccccc2)cc1)C(=O)N[C@@H](Cc1ccc(-c2ccccc2)cc1)C(N)=O)[C@@H](C)O` [3-2, H2N-His-Aib-Glu-Gly-Thr-Phe(2-Cl)-Thr-Ser-Asp-Bip-Bip-C(O)NH2] (H-H[Aib]EGT[Phe(2-Cl)]TSD[Bip][Bip]-NH2): the EC50 (usually the concentration giving half of the maximal effect) under setting [1] was found to be 4.5 nM.
`CC(C)C[C@H](NC(=O)[C@@H](N)CCC(=O)O)C(=O)NC(C)(C)C(=O)N[C@@H](CC(=O)O)C(=O)NCC(=O)N[C@H](C(=O)N[C@@](C)(Cc1ccccc1F)C(=O)N[C@H](C(=O)N[C@@H](CO)C(=O)N[C@@H](CC(=O)O)C(=O)N[C@@H](Cc1ccc(-c2ccccc2)cc1)C(=O)N[C@@H](Cc1ccc(-c2ccccc2)cc1)C(N)=O)[C@@H](C)O)[C@@H](C)O` [2-7, H2N-Glu-Leu-Aib-Asp-Gly-Thr-α-MePhe(2-F)-Thr-Ser-Asp-Bip-Bip-C(O)NH2] (H-EL[Aib]DGT[αMePhe(2-F)]TSD[Bip][Bip]-NH2): under setting [2], the 50% effective concentration (EC50) worked out at 3.1 nM.
For `C[C@@H](O)[C@H](NC(=O)CNC(=O)[C@H](CCC(=O)O)NC(=O)C(C)(C)NC(=O)[C@@H](N)Cc1c[nH]cn1)C(=O)N[C@@](C)(Cc1ccccc1F)C(=O)N[C@H](C(=O)N[C@@H](CO)C(=O)NC(C)(C)C(=O)N[C@@H](Cc1ccc(-c2ccccc2)cc1)C(=O)N[C@@H](Cc1ccc(-c2ccccc2)cc1)C(N)=O)[C@@H](C)O` [3-37, H2N-His-Aib-Glu-Gly-Thr-αMePhe(2-F)-Thr-Ser-Aib-Bip-Bip-C(O)NH2] (H-H[Aib]EGT[αMePhe(2-F)]TS[Aib][Bip][Bip]-NH2), the 50% effective concentration (EC50) (cAMP EC50, nM (0.1% albumin), Table 3, 0.1% albumin) was 91.6 nM.
For the molecule `C[C@@H](O)[C@H](NC(=O)CNC(=O)[C@H](CCC(=O)O)NC(=O)C(C)(C)NC(=O)[C@@H](N)Cc1c[nH]cn1)C(=O)N[C@@](C)(Cc1ccccc1F)C(=O)N[C@H](C(=O)N[C@@H](CO)C(=O)N[C@@H](CC(=O)O)C(=O)N[C@@H](Cc1ccc(-c2ccccc2)cc1)C(=O)N[C@@H](CCc1ccc(O)cc1)C(N)=O)[C@@H](C)O` [4-4, H2N-His-Aib-Glu-Gly-Thr-α-MePhe(2-F)-Thr-Ser-Asp-Bip-Hph(4-OH)-C(O)NH2] (H-H[Aib]EGT[αMePhe(2-F)]TSD[Bip][hTyr]-NH2), the EC50 by setting is: under setting [3], 16.6 nM; under setting [4], 16.6 nM.
`C[C@@H](O)[C@H](NC(=O)CNC(=O)[C@H](CCC(=O)O)NC(=O)C(C)(C)NC(=O)[C@@H](N)Cc1c[nH]cn1)C(=O)N[C@@](C)(Cc1ccccc1F)C(=O)N[C@H](C(=O)N[C@@H](CO)C(=O)N[C@@H](CC(=O)O)C(=O)N[C@@H](Cc1ccc(-c2ccccc2)cc1)C(=O)N[C@@H](Cc1ccc(-c2ccccc2)cc1)C(=O)NCC(=O)NCC(=O)NCC(=O)N[C@@H](CCCCN)C(N)=O)[C@@H](C)O` [4-58, H2N-His-Aib-Glu-Gly-Thr-α-MePhe(2-F)-Thr-Ser-Asp-Bip-Bip-C(O)NH-RY14] (H-H[Aib]EGT[αMePhe(2-F)]TSD[Bip][Bip]GGGK-NH2): the EC50 under setting [4] was 7.7 nM.
Same read-out and setting: then `C[C@@H](O)[C@H](NC(=O)CNC(=O)[C@H](CCC(=O)O)NC(=O)C(C)(C)NC(=O)[C@@H](N)Cc1c[nH]cn1)C(=O)N[C@@](C)(Cc1ccccc1F)C(=O)N[C@H](C(=O)N[C@@H](CO)C(=O)N[C@@H](CC(=O)O)C(=O)N[C@@H](Cc1ccc(-c2ccccc2)cc1)C(=O)N[C@@H](Cc1ccc(-c2ccccc2)cc1)C(=O)NCCOCCOCC(=O)NCCOCCOCC(N)=O)[C@@H](C)O` [4-29, H2N-His-Aib-Glu-Gly-Thr-α-MePhe(2F)-Thr-Ser-Asp-Bip-Bip-C(O)(AEEA)2-NH2] (H-H[Aib]EGT[αMePhe(2-F)]TSD[Bip][Bip][AEEA][AEEA]-NH2), with 10 nM.
`C[C@@H](O)[C@H](NC(=O)CNC(=O)[C@H](CCC(=O)O)NC(=O)C(C)(C)NC(=O)[C@@H](N)Cc1c[nH]cn1)C(=O)N[C@@](C)(Cc1ccccc1F)C(=O)N[C@H](C(=O)N[C@@H](CO)C(=O)N[C@@H](CC(=O)O)C(=O)N[C@@H](Cc1ccc(-c2ccccc2)cc1)C(=O)N[C@@H](CCc1ccccc1)C(N)=O)[C@@H](C)O` [1-4, H2N-His-Aib-Glu-Gly-Thr-α-MePhe(2-F)-Thr-Ser-Asp-Bip-Hph-C(O)NH2] (H-H[Aib]EGT[αMePhe(2-F)]TSD[Bip][hPhe]-NH2): the EC50 turned out to be 11 nM under setting [3] and 11 nM under setting [4].
In turn, `C[C@@H](O)[C@H](NC(=O)CNC(=O)[C@H](CCC(=O)O)NC(=O)C(C)(C)NC(=O)[C@@H](N)Cc1c[nH]cn1)C(=O)N[C@@H](Cc1cc(F)c(F)c(F)c1)C(=O)N[C@H](C(=O)N[C@@H](CO)C(=O)N[C@@H](CC(=O)O)C(=O)N[C@@H](Cc1ccc(-c2ccccc2)cc1)C(=O)N[C@@H](Cc1ccc(-c2ccccc2)cc1)C(N)=O)[C@@H](C)O` [3-9, H2N-His-Aib-Glu-Gly-Thr-Phe(3,4,5-F)-Thr-Ser-Asp-Bip-Bip-C(O)NH2] (H-H[Aib]EGT[Phe(3,4,5-F3)]TSD[Bip][Bip]-NH2) came in with an EC50 under setting [1] of 44.6 nM.
Turning to `C[C@@H](O)[C@H](NC(=O)CNC(=O)[C@H](CCC(=O)O)NC(=O)C(C)(C)NC(=O)[C@@H](N)Cc1c[nH]cn1)C(=O)NC(C)(C)C(=O)N[C@H](C(=O)N[C@@H](CO)C(=O)N[C@@H](CC(=O)O)C(=O)N[C@@H](Cc1ccc(-c2ccccc2)cc1)C(=O)N[C@@H](Cc1ccc(-c2ccccc2)cc1)C(N)=O)[C@@H](C)O` [3-18, H2N-His-Aib-Glu-Gly-Thr-Aib-Thr-Ser-Asp-Bip-Bip-C(O)NH2] (H-H[Aib]EGT[Aib]TSD[Bip][Bip]-NH2), the response under setting [1] was half-maximal at 152 nM (EC50).
The same measure, in the same setting: then `C[C@@H](O)[C@H](NC(=O)CNC(=O)[C@H](CCC(=O)O)NC(=O)C(C)(C)NC(=O)[C@@H](N)Cc1c[nH]cn1)C(=O)N[C@@H](CCc1ccccc1)C(=O)N[C@H](C(=O)N[C@@H](CO)C(=O)N[C@@H](CC(=O)O)C(=O)N[C@@H](Cc1ccc(-c2ccccc2)cc1)C(=O)N[C@@H](Cc1ccc(-c2ccccc2)cc1)C(N)=O)[C@@H](C)O` [3-11, H2N-His-Aib-Glu-Gly-Thr-hPhe-Thr-Ser-Asp-Bip-Bip-C(O)NH2] (H-H[Aib]EGT[hPhe]TSD[Bip][Bip]-NH2), with 32.6 nM.
In the case of `C[C@@H](O)[C@H](NC(=O)CNC(=O)[C@H](CCC(=O)O)NC(=O)C(C)(C)NC(=O)[C@@H](N)Cc1c[nH]cn1)C(=O)N[C@@](C)(Cc1ccccc1F)C(=O)N[C@H](C(=O)N[C@@H](CO)C(=O)N[C@@H](CC(=O)O)C(=O)N[C@@H](Cc1ccc(-c2ccccc2)cc1)C(=O)N[C@@H](Cc1ccc(-c2ccccc2)cc1)C(=O)N[C@@H](CCCCN)C(N)=O)[C@@H](C)O` [4-28, H2N-His-Aib-Glu-Gly-Thr-α-MePhe(2F)-Thr-Ser-Asp-Bip-Bip-Lys-NH2] (H-H[Aib]EGT[αMePhe(2-F)]TSD[Bip][Bip]K-NH2), under setting [4], the EC50 amounted to 16.1 nM.
For `C[C@@H](O)[C@H](NC(=O)CNC(=O)[C@H](CCC(=O)O)NC(=O)[C@]1(C)CCCN1C(=O)[C@@H](N)Cc1c[nH]cn1)C(=O)N[C@@](C)(Cc1ccccc1F)C(=O)N[C@H](C(=O)N[C@@H](CO)C(=O)N[C@@H](CC(=O)O)C(=O)N[C@@H](Cc1ccc(-c2ccccc2)cc1)C(=O)N[C@@H](Cc1ccc(-c2ccccc2)cc1)C(=O)NCCOCCOCC(=O)N[C@@H](CCCCNC(=O)CCc1ccc(I)cc1)C(N)=O)[C@@H](C)O` [4-66, H2N-His-α-MePro-Glu-Gly-Thr-α-MePhe(2-F)-Thr-Ser-Asp-Bip-Bip-C(O)NH-RY22] (H-H[αMeP]EGT[αMePhe(2-F)]TSD[Bip][Bip][AEEA]K(Hydrocinnamoyl(4-I))-NH2), the EC50 under setting [4] worked out at 2.9 nM.
Regarding `CC(C)C[C@H](NC(=O)[C@@H](N)Cc1c[nH]cn1)C(=O)NC(C)(C)C(=O)N[C@@H](CC(=O)O)C(=O)NCC(=O)N[C@H](C(=O)N[C@@](C)(Cc1ccccc1F)C(=O)N[C@H](C(=O)N[C@@H](CO)C(=O)N[C@@H](CC(=O)O)C(=O)N[C@@H](Cc1ccc(-c2ccccc2)cc1)C(=O)N[C@@H](Cc1ccc(-c2ccccc2)cc1)C(N)=O)[C@@H](C)O)[C@@H](C)O` [2-9, H2N-His-Leu-Aib-Asp-Gly-Thr-α-MePhe(2-F)-Thr-Ser-Asp-Bip-Bip-C(O)NH2] (H-HL[Aib]DGT[αMePhe(2-F)]TSD[Bip][Bip]-NH2), under setting [2], the response was half-maximal at 6.4 nM (EC50).
For `C[C@H](NC(=O)[C@H](Cc1ccccc1F)NC(=O)[C@@H](NC(=O)CNC(=O)[C@H](CCC(=O)O)NC(=O)C(C)(C)NC(=O)[C@@H](N)Cc1c[nH]cn1)[C@@H](C)O)C(=O)N[C@@H](CO)C(=O)N[C@@H](CC(=O)O)C(=O)N[C@@H](Cc1ccc(-c2ccccc2)cc1)C(=O)N[C@@H](Cc1ccc(-c2ccccc2)cc1)C(N)=O` [3-25, H2N-His-Aib-Glu-Gly-Thr-Phe(2-F)-Ala-Ser-Asp-Bip-Bip-C(O)NH2] (H-H[Aib]EGT[Phe(2-F)]ASD[Bip][Bip]-NH2), the EC50 (cAMP EC50, nM (0.1% albumin), Table 2, 0.1% albumin) was found to be 79.1 nM.
Under setting [4], `C[C@@H](O)[C@H](NC(=O)CNC(=O)[C@H](CCC(=O)O)NC(=O)C(C)(C)NC(=O)[C@@H](N)Cc1c[nH]cn1)C(=O)N[C@@](C)(Cc1ccccc1F)C(=O)N[C@H](C(=O)N[C@@H](CO)C(=O)N[C@@H](CC(=O)O)C(=O)N[C@@H](Cc1ccc(-c2ccccc2)cc1)C(=O)N[C@@H](Cc1ccc(-c2ccccc2)cc1)C(=O)NCCOCCOCC(=O)NCCOCCOCC(=O)NCCOCCOCC(=O)N[C@@H](CCCCN)C(N)=O)[C@@H](C)O` [4-31, H2N-His-Aib-Glu-Gly-Thr-α-MePhe(2F)-Thr-Ser-Asp-Bip-Bip-C(O)(AEEA)3-Lys-NH2] (H-H[Aib]EGT[αMePhe(2-F)]TSD[Bip][Bip][AEEA][AEEA][AEEA]K-NH2) had an EC50 of 31.2 nM.

The values above are taken from US20230015478A1, “GLP-1 RECEPTOR AGONISTS HAVING IMPROVED PHARMACOLOGICAL AND DRUG DELIVERY PROPERTIES” (priority 2021, published 2023).
